Results: patent publication US20100256214A1, “EPH RECEPTOR LIGANDS AND METHODS OF USE” (Burnham Institute for Medical Research, priority 2009, published 2010)

Key:
[1] = tested on: retinal neurons; test: Growth cone collapse assay, nasal retina explants; format: cell-based, chicken; conditions: for ephrin-A5 Fc induced growth cone collapse: 1 μg/mL ephrin-A5 Fc, 400 μM compound, 5 μM KYL peptide; for shape of unstimulated growth cones: concentrations as high as 400 μM
Experimental: FIGS. 8A-8F. Compounds 1 and 2 block EphA4-dependent growth cone collapse in retinal neurons. A. Explants from embryonic day 6 chicken embryonic were preincubated with 5 μM KYL peptide for 15 min, stimulated for 30 min with 1 μg/mL ephrin-A5 Fc or Fc as a control in the continued presence of the peptide, and stained with rhodamine-phalloidin to label filamentous actin. B. Histogram showing the mean percentages of collapsed growth cones. Growth cones were scored as collapsed when no lamellipodia or filopodia were visible at the tip of the neurite. Approximately 30-200 growth cones per condition were scored in each experiment and error bars indicate standard error from 3 independent experiments. C-F. Experiments were performed as in (A), except that retinal explants were treated with 400 μM compound 1 (C,D) or compound 2 (E,F). Approximately 80-250 growth cones per condition were scored in each experiment, and error bars indicate standard error from 3 experiments. Collapsed growth cones under different conditions were compared to those in the Fc control condition by one-way ANOVA and Dunnett's post test. *P<0.05 and **P<0.01. Scale bars in (A), (C), (E)=[…].
Growth Cone Collapse Assay—Nasal retina explants from embryonic day 6 chicken embryos were cultured on coverslips coated with 200 μg/mL poly-L-lysine and 20 μg/mL lamining for 12 to 24 hours in DMEM/F-12 culture medium containing 10% FBS and 0.4% methylcellulose. Three hours before adding the Fc fusion proteins, the medium was changed to DMEM/F-12 without methylcellulose. The explants were incubated for 15 min with the KYL peptide or the chemical compounds and then stimulated for 30 min with 1 μg/mL preclustered ephrin-A5 Fc or Fc as a control. The cultures were fixed for 30 min in 4% paraformaldehyde/4% sucrose in phosphate buffered saline (PBS), permeabilized in 0.1% Triton X-100 in PBS and stained with rhodamine-conjugated phalloidin (Invitrogen, Carlsbad, Calif.). Cells were photographed under a fluorescence microscope and growth cones where scored in a blinded manner as collapsed when no lamellipodia or filopodia were present at the tip of the neurite.

[2] = molecular target: EphA4 (Mus musculus, UniProt Q03137); test: ELISA, EphA4 AP binding to immobilized ephrin Fc fusion proteins; set-up: made in house; conditioned culture medium used
EphA4, sequence (Q03137 20-547 limits assumed): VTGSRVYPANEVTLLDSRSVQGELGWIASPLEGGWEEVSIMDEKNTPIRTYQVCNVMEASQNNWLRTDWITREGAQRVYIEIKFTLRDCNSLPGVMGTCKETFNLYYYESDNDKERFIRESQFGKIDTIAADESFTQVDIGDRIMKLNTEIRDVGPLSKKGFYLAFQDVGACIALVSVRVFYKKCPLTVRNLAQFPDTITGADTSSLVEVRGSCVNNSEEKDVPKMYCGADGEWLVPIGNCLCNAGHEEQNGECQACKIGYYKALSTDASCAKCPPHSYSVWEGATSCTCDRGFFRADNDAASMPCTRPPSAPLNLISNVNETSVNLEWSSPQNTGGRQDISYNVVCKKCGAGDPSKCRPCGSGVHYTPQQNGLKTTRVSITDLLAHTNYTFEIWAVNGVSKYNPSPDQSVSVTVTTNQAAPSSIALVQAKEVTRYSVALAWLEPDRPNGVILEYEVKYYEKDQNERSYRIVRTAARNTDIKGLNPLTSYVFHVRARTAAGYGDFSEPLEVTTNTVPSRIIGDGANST
Experimental: (§1) FIGS. 3A and 3B. A. Ephrin-A5 AP binding to immobilized EphA receptor Fc fusion proteins and ephrin-B2 AP binding to immobilized EphB receptor Fc fusion proteins were measured in the presence of the indicated concentrations of compounds 1 and 2. […] Error bars indicate standard error from 3 measurements. B. IC50 values for inhibition of EphA4 AP and EphA2 AP binding to the indicated immobilized ephrins by compounds 1 and 2.
(§2) ELISA Assays and K, Determination—Protein A-coated wells (Pierce Biotecnology, Rockford, Ill.) were used to immobilize ephrin Fc fusion proteins (R&D Systems, Minneapolis, Minn.). Compounds at different concentrations were incubated with EphA4 AP (Cheng and Flanagan, (1994) Cell 79(1), 157-168) or EphA2 AP (Koolpe et al. (2002) J Biol Chem 277(49), 46974-46979) for 3 hours. Alternatively, Eph receptor Fc fusion proteins were immobilized on protein A-coated wells and ephrin-A5 AP (Menzel et al. (2001) Developmental Biology 230(1), 74-88) or ephrin-B2 AP (GeneHunter, Nashville, Tenn.) were added with the compounds. The amount of bound AP-fusion protein was quantified using pNPP as the substrate. Alkaline phosphatase activity from wells with Fc only was subtracted as background. […]

[3] = tested on: EphA and EphB receptors; test: ELISA, ephrin-A5 AP / ephrin-B2 AP binding to immobilized EphA and EphB receptor Fc fusion proteins
Experimental: as §1, §2

## Cc1ccc(C)n1-c1ccc(C(=O)O)c(O)c1 [compound 1, 4-(2,5-dimethyl-pyrrol-1-yl)-2-hydroxy-benzoic acid]
[1]
  ephrin-A5 Fc induced growth cone collapse: block
  shape of unstimulated growth cones: neither the KYL peptide nor the two compounds at concentrations as high as 400 μM affected the shape
[1]; listed as Compound 1
  ephrin-A5 Fc induced growth cone collapse: blocked
[2]
  inhibition of binding of different ephrin ligands to EphA4: inhibited binding of most ephrin ligands to EphA4, except for ephrin-A4 and ephrin-B2
[3]
  selectivity of inhibition of ephrin binding among EphA and EphB receptors: efficiently inhibited ephrin binding only to EphA4 and EphA2

## Cc1ccc(C)n1-c1ccc(O)c(C(=O)O)c1 [compound 2, 5-(2,5 dimethyl-pyrrol-1-yl)-2-hydroxy-benzoic acid]
[1]
  ephrin-A5 Fc induced growth cone collapse: block
  shape of unstimulated growth cones: neither the KYL peptide nor the two compounds at concentrations as high as 400 μM affected the shape
[2]
  inhibition of binding of different ephrin ligands to EphA4: inhibited binding of most ephrin ligands to EphA4, except for ephrin-A4 and ephrin-B2
[3]
  selectivity of inhibition of ephrin binding among EphA and EphB receptors: efficiently inhibited ephrin binding only to EphA4 and EphA2
